Values quoted from earlier work as cited in US20070213265A1, “Kunitz-type sequences and polypeptides” (Novo Nordisk A/S, priority 2001, published 2007).
Each block holds one substance with its values, some of them ahead of it.

What was measured:
[1] = high doses; cardiac surgery, including cardiopulmonary bypass operations
plasma kallikrein = plasma kallikrein (Homo sapiens, UniProt P03952)
granulocyte elastase = granulocyte elastase (Homo sapiens, UniProt P08246)
Sequence of granulocyte elastase (P08246 30-267): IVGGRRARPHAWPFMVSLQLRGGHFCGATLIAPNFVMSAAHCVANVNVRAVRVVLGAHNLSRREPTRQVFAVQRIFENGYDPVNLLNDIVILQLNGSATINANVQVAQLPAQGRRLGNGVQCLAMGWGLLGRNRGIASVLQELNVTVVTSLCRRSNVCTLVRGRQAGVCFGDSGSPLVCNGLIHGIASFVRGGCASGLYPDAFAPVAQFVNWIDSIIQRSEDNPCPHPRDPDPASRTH

Sequence of plasma kallikrein (P03952 20-638, species assumed): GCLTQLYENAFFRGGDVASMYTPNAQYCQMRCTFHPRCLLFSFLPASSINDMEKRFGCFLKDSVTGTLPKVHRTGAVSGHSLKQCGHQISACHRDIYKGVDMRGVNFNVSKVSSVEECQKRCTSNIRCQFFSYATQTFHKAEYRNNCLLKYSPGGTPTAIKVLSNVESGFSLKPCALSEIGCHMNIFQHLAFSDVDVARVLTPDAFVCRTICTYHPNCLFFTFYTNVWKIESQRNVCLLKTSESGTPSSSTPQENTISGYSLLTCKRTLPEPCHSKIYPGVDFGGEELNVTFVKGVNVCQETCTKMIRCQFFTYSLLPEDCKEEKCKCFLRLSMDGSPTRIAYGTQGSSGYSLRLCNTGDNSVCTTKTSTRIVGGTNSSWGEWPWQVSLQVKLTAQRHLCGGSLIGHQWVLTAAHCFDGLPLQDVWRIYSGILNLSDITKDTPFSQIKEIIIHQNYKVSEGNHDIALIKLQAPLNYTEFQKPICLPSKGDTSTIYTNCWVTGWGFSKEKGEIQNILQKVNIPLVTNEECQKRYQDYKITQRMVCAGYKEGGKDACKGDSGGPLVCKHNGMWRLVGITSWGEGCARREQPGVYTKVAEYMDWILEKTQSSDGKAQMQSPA

Substance: aprotinin
blood loss [1]: significantly reduces blood loss

plasma kallikrein inhibitory effect (plasma kallikrein): excellent
Substance: aprotinin (3-58, Arg15, Ala17, Ser42)

Substance: aprotinin(1-58, Val15)
inhibitory effect on collagenase (collagenase): inhibitory effect | selectivity for granulocyte elastase (granulocyte elastase): relatively high selectivity

effect on elastase (elastase): weak effect
Substance: Aprotinin (1-58, Ala15)
